This is an account of results in patent publication US7851510B2, “Gossypol derivatives, production method thereof and uses of same” (Centre National de la Recherche Scientifique (C.N.R.S.), priority 2004, dated 2010).

This assay deals with KB tumour cell line. In words: Cytotoxicity vis-à-vis the KB tumour cell line. The class given is cell-based. Conditions: Homo sapiens. On the procedure:
The cytotoxicity of the compound vis-à-vis the KB tumour cell line was measured as is described in Dao et al. (2003) Bioorg. Med. Chem. 11:2001-2006.

Regarding `CC1=C(C2=C(C)C(=O)c3c(c(CO)c(O)c(O)c3C(C)C)C2=O)C(=O)c2c(CO)c(O)c(O)c(C(C)C)c2C1=O` [(5), 6,7,6′,7′-tetrahydroxy-8,8′-bis-hydroxymethyl-5,5′-diisopropyl-3,3′-dimethyl-[2,2′]binaphthalenyl-1,4,1′,4′-tetraone], the IC50 amounted to 1 µM.
Turning to `CC1=C(C2=C(C)C(=O)c3c(c(CSc4ccccc4)c(O)c(O)c3C(C)C)C2=O)C(=O)c2c(CSc3ccccc3)c(O)c(O)c(C(C)C)c2C1=O` [(7), 6,7,6′,7′-tetrahydroxy-5,5′-diisopropyl-3,3′-dimethyl-8,8′-bis-phenylsulphanylmethyl-[2,2′]binaphthalenyl-1,4,1′,4′-tetraone], the IC50 turned out to be 4 µM.
The same measure for `CC1=C(C2=C(C)C(=O)c3c(c(CSc4ccc(C)cc4)c(O)c(O)c3C(C)C)C2=O)C(=O)c2c(CSc3ccc(C)cc3)c(O)c(O)c(C(C)C)c2C1=O` [(8), 6,7,6′,7′-tetrahydroxy-5,5′-diisopropyl-3,3′-dimethyl-8,8′-bis-p-tolylsulphanylmethyl-[2,2′]binaphthalenyl-1,4,1′,4′-tetraone]: 6.5 µM; for `COc1ccc(SCc2c(O)c(O)c(C(C)C)c3c2C(=O)C(C2=C(C)C(=O)c4c(c(CSc5ccc(OC)cc5)c(O)c(O)c4C(C)C)C2=O)=C(C)C3=O)cc1` [(9), 6,7,6′,7′-tetrahydroxy-5,5′-diisopropyl-8,8′-bis-(4-methoxy-phenylsulphanylmethyl)-3,3′-dimethyl-[2,2′]binaphthalenyl-1,4,1′,4′-tetraone]: 6.5 µM; for `CC1=C(C2=C(C)C(=O)c3c(c(CSc4ccc(Cl)cc4)c(O)c(O)c3C(C)C)C2=O)C(=O)c2c(CSc3ccc(Cl)cc3)c(O)c(O)c(C(C)C)c2C1=O` [(10), 6,7,6′,7′-tetrahydroxy-5,5′-diisopropyl-8,8′-bis-(4-chloro-phenylsulphanylmethyl)-3,3′-dimethyl-[2,2′]binaphthalenyl-1,4,1′,4′-tetraone]: 3 µM.
For the molecule `CC1=C(C2=C(C)C(=O)c3c(c(CSc4c(F)c(F)cc(F)c4F)c(O)c(O)c3C(C)C)C2=O)C(=O)c2c(CSc3c(F)c(F)cc(F)c3F)c(O)c(O)c(C(C)C)c2C1=O` [(11), 6,7,6′,7′-tetrahydroxy-5,5′-diisopropyl-8,8′-bis-(2,3,5,6-tetrafluoro-phenylsulphanylmethyl)-3,3′-dimethyl-[2,2′]binaphthalenyl-1,4,1′,4′-tetraone], the IC50 is 8.5 µM.
